# Source: patent publication US6946447B2, “MDM2-specific antisense oligonucleotides” (Hybridon, Inc., priority 1997, dated 2005)
# Like-named read-outs stand apart in the source and are kept apart here.
# Assays:
# [1] = mice bearing LS174T xenografts
# [2] = mice bearing DLD-1 xenografts
# [3] = tested on: JAR xenografts; assay: Tumor regression and survival of nude mice bearing large JAR xenografts, intratumoral injection; details: JAR xenografts (average 2,000 mg)
# Experimental: Administration was by direct injection into the tupors at the designated daily dose, 5 doses/week. Anti-MDM2 oligonucleotide: AS5-2H (5 mg/kg/day, 5 injections); anti-MDM2 oligonucleotide (5 mg/kg)+HCPT (3 mg/kg); control (saline); HCPT: 3 mg/kg/day.
# The tumor cell lines, SJSA and JAR, were cultured under the same conditions as in in vitro studies (Chen et al., PNAS 1998, supra). Human cancer xenograft models were established using the methods reported previously (Cai et al., Intl. J. Oncol. 10:953-960, 1997; and Zhang et al., Intl. J. Oncol. 10:1147-1156, 1997). Female nude mice (five week old) were used in the study. Cultured SJSA and JAR cells were harvested from the monolayer cultures, washed twice with DMEMF-12 HAM medium, resuspended in DMEM, and injected s.c. (20×10^6 cells, total volume 0.2 ml) into the left inguinal area of the mice. The animals were monitored by general clinical observation, body weight, and tumor growth. […] Animals with JAR cells were treated when the tumor size reached 2,000 mg. The animals bearing human cancer carcinoma xenografts were randomly divided into treatment groups and a control group (6-10 mice/group). Oligonucleotides dissolved in physiological saline (0.9% NaCl) were administered by ip injection at various daily doses, 5 consecutive days per week. The control group received physiological saline only. […]
substance,measurement,setting,value
"Oligo AS: 20-mer mixed-backbone phosphorothioate oligonucleotide with 2′-O-methyl ends, 5′UGACACCTGTTCTCACUCAC-3′; SEQ ID NO:47 (mixed phosphorothioate backbone with 2'-O-methyl ends, pattern not given here)",Survival Rates of Animals,[1]; day 3,100%
same,Survival Rates of Animals,[1]; day 6,100%
same,Survival Rates of Animals,[1]; day 9,100%
same,Survival Rates of Animals,[1]; day 12,100%
same,Survival Rates of Animals,[1]; day 15,100%
same,Survival Rates of Animals,[1]; day 18,100%
same,Survival Rates of Animals,[2]; day 3,100%
same,Survival Rates of Animals,[2]; day 6,100%
same,Survival Rates of Animals,[2]; day 9,100%
same,Survival Rates of Animals,[2]; day 12,100%
same,Survival Rates of Animals,[2]; day 15,100%
same,Survival Rates of Animals,[2]; day 18,100%
same,Survival Rates of Animals,[2]; day 21,100%
same,tumor regression,[3]; direct injection,tumor regression
same,animals surviving up to 4 weeks,"[3]; direct injection into tumors, 5 mg/kg/day",20%
